Experiment [1] has as its system H3K9 methylation marks. Particulars: peripheral administration; cited from earlier work.
Experiment [2] deals with Tert gene expression. The experiment is described as follows: Tert mRNA levels in cortex and hippocampus of AD mice treated with histone methyltransferase inhibitors. The class given is in vivo, mouse. To be noted: cortex and hippocampus of AD mice (5xFAD), FIG. 1I. The source says:
Tert mRNA levels in the cortex of 3xTg-AD and wildtype control (B6129SF2/J) mice (n=4; 3-month-old). (B) Tert mRNA levels in the hippocampus of 5xFAD and wildtype littermate control mice (n=4; 2˜3-month-old). (C) Tert mRNA levels in primary cortical and hippocampal neurons isolated from 3xTg-AD and control mice at DIV 14 (n=3). (D) Tert mRNA levels in primary cortical and hippocampal neurons isolated from 5xFAD and control mice at DIV 14 (n=3). (E) Telomerase activity in hippocampal neurons isolated from 5xFAD and control mice (n=4; 2˜3-month-old). (F) Representative view of H3K9me3 repressive histone mark occupancy in Tert gene of 5xFAD and control mouse primary neurons at DIV 14. […]
Focusing in particular on the neuronal population, the inventors isolated and cultured primary cortical and hippocampal neurons from E18.5-E19.5 AD mouse brains, and Tert mRNA levels were examined at 14 Days in vitro (DIV), by which time the synaptic network is mature. […] To investigate whether reversible H3K9 methylation is involved in the repression of Tert, the inventors assessed the impact of histone methyltransferase inhibitors chaetocin and BIX-01294, the non-selective cofactor-competitive inhibitor and the selective substrate-competitive inhibitor, respectively, in the AD mouse model (Greiner et al., Nat Chem Biol, 2005; Kubicek et al., Mol Cell, 2007; Yuan et al., ACS Chem Biol, 2012). […]

With `COc1cc2nc(N3CCCN(C)CC3)nc(NC3CCN(Cc4ccccc4)CC3)c2cc1OC` [BIX-01294], in experiment [1], the “H3K9 methylation marks in the central nervous system” value is listed as “reduce H3K9 methylation marks”. Also, the “Tert gene expression (Tert mRNA levels)” value in experiment [2] is reported as “de-repression of Tert gene expression”.

The values are drawn from patent US20220313782A1, “METHODS AND COMPOSITIONS INVOLVING TERT ACTIVATING THERAPIES” (BOARD OF REGENTS, THE UNIVERSITY OF TEXAS SYSTEM, priority 2019, published 2022).
